What was measured:
Format in all cases: cell-based
[1] = biological target: GSPT1 (Homo sapiens, UniProt P15170+Q96SW2); experiment: GSPT1 Cellular Degradation Assay (DF15-GSPT1-ePL); parameters: expressed in transfected cells; conditions: DF15-GSPT1-ePL cells, 20 hours
Excerpt: DF15-GSPT1-ePL was used for intracellular GSPT1 protein degradation detection in form of chemiluminescent signal, which was built on a human DF15 cell line (CVCL_Y429) with conditional co-expression of chimeric GSPT1 (target) and ePL/donor (enhanced ProLabel® by DiscoverX for enzyme fragment complementation with donor-acceptor pairing). The cells used the culture medium in two arrangements for assay and maintenance. During assay, it used Core-RPMI 1640 medium with 10% Fetal Bovine Serum (Heat Inactivated) and 1× Penicillin/Streptomycin; and during passage maintenance, used added ingredients: 0.1 mM NEAA, 1 mM sodium pyruvate, 25 mM Hepes, 0.1% Pluronic F-68, 1× Glutamin, 4 μg/mL Blasticidin (selection agent). Detection was performed on a 1536 well tissue culture plate (Corning #3727) with cells seeded in 3.5 μL core-RPMI 1640 at density of 0.25 million/mL after the pre-titrated test compounds in DMSO on ECHO plate were dispensed onto the assay plate by use of ECHO (liquid handing system via acoustic energy from Labcyte). Assay incubation lasted 20 hours in 37° C. incubator with 5% CO2; then followed by 30 minutes of plate-cooling at room temperature; then detection-reagent-mix was added in 3.5 μL/well with pre-defined proportion of enzyme acceptor, substrate, and lysis buffer. Plate signal reading for luminescence on an EnVision plate reader (PerkinElmer) was conducted after 60 minutes of former step at room temperature. Raw data was collected and processed with Dotmatics (data analyzer) for test compound's potency values. The reference compound, 3-[5-(3,6-dimethoxyisoquinolin-1-yl)-1-oxo-2,3-dihydro-1H-isoindol-2-yl]piperidine-2,6-dione, at […] was used to define 75% response. Assay results for each compound were reported as DC50, the concentration giving 50% response, and Dmax, the maximum response observed with the compound.

[2] = system: Phospho-Rb (Ser807/811); experiment: Phospho-Retinoblastoma (pRB) Cellular Assay; conditions: Homo sapiens, OVCAR-3, NIH OVCAR3 cells, 24 hours; for IC50: concentration giving 50% response; for Emax: maximum response, reference compound at 10 μM = 100%, read-out: pRB Ymax
Procedure: Phospho-Retinoblastoma (pRB) Cellular Assay
NIH OVCAR3 (HTB-161, American Type Culture Collection, Manassas VA) cells were grown up to passage 10 in culture media made up of RPMI (11835-030 Gibco, Grand Island NY), 20% HI FBS (16140-071, Gibco, Grand Island NY), and 0.01 mg/mL insulin from bovine pancreas (I6634-1G, Sigma Aldrich, St. Louis, MO).
The cells were seeded in a 384-well CulturPlate (6007688, Perkin Elmer, Waltham MA) at a density of 10,000 cells/well in 20 μL of the above culture media and incubated overnight at 37° C. and 5% CO2.
The next day, cells were treated using an Echo 650 (Beckman Coulter, Indianapolis IN) acoustic dispenser with 40 nL of compounds dissolved in DMSO at the appropriate serial dilutions (10 mM to […]). Cells were then incubated for 24 hours as above.
After 24 hours elapsed, media was removed from each well and shortly after 20 μL of the following mix was added: 12 μL deionized water, 4 μL lysis buffer, 4 μL of reconstituted antibody mix, and 1:100 phosphatase inhibitor. These components belong to the Phospho-Rb (Ser807/811) Cellular Kit (64RBS807PEY, Perkin Elmer, Waltham MA).
Plates were sealed and incubated away from light at room temperature for at least 4 hours before reading them on an EnVision plate reader (Perkin Elmer, Waltham MA) according to the kit manufacturer's protocol. The reference compound, N-(5-{[(5-tert-butyl-1,3-oxazol-2-yl)methyl]sulfanyl}-1,3-thiazol-2-yl)piperidine-4-carboxamide, at 10 μM was used to define 100% response. Assay results for each compound were reported as IC50, the concentration giving 50% response, and Ymax, the maximum response observed with the compound.

[3] = biological target: Cyclin E1 (Homo sapiens, UniProt P24864+Q96SW2); experiment: Cyclin E1 Cellular Degradation Assay (MSD); parameters: endogenous in cells; host or cells: OVCAR3; conditions: for DC50 / Dmax: Cyclin E1 cellular degradation; for Dmax: maximum degradation; for Ratio of GSPT1 DC50/Cyclin E1 DC50: selectivity for degradation of Cyclin E1 over GSPT1
Procedure: Culturing cells: On Day 0, OVCAR3 cells were plated at 15,000 cells/well in 40 μL of culture medium (RPMI1640, 20% FBS, 0.01 insulin, 1% Anti/Anti) in a 384 well cell culture plate. Cell cultures were incubated for 24 hours at 37° C. and 5% CO2.
Coating MSD plates: On Day 1, rabbit anti-CCNE1 antibody (Abcam ab33911, 1 μg/mL in DPBS, […]) was dispensed to a Meso Scale Discovery plate (MSD L21XA). The MSD plate was spun briefly to ensure the solution coated the bottom of the well and incubated overnight at 4° C. On Day 2, the plate was washed 3 times with TBS +0.2% TWEEN, blocked for 1 hour with 3% MSD Blocker A (MSD R93AA-1, 30 μL/well), then washed again 3 times with TBS+0.2% TWEEN.
Treating and lysing cells: On Day 1, compounds of interest were dispensed into the cell cultures by acoustic dispensing technology. The cell cultures were then spun at 400 g for 4 minutes to disperse the compounds and incubated at 37° C. and 5% CO2 for 24 hours. After incubation, 40 μL of DPBS was added to the cell cultures to dilute the media. All liquid was gently discarded and immediately replaced with 30 μL of lysis buffer (MSD Tris Lysis buffer (MSD R60TX-2), Halt Protease inhibitor (ThermoFisher 78438), Phosphatase Inhibitor II (Sigma-Aldrich P5726), Phosphatase Inhibitor III (Sigma-Aldrich P0044), 0.02M PMSF (Sigma-Aldrich 7626), 0.1% SDS (VWR E719-100ML)). The plate was then sealed, shaken at 300 rpm at room temperature for 5 minutes, and freeze-thawed for optimum cell lysis.
Collecting data: After thawing, 25 μL of lysate was transferred to a coated MSD plate. The plate was then sealed and shaken at 300 rpm overnight in 4° C. On Day 3, the MSD plate was washed 3 times with TBS+0.2% TWEEN. Mouse anti-CCNE1 antibody (Abcam ab238081, 0.5 μg/mL in 1% MSD Blocker A, 10 μL/well) dispensed to the MSD plate, which was then sealed and shaken at room temperature for 3 hours. After the first antibody incubation, the plate was washed 3 times with TBS+0.2% TWEEN, then goat anti-mouse Sulfo-Tag antibody (MSD R32AC, 1 μg/mL in 1% MSD Blocker A, 10 μL/well) was dispensed to the MSD plate. The plate was sealed again and shaken at room temperature for 1 hour, then washed 3 times with TBS+0.2% TWEEN. After the final wash, 35 μL of 1× Read Buffer (MSD R92TC-1) was added to each well and the data was captured using the MSD plate reader. The reference compound, [2-(2,6-dioxopiperidin-3-yl)-4-methoxy-3-oxo-2,3-dihydro-1H-isoindol-5-yl]methyl N-[4-(3,4-difluorophenoxy)phenyl]carbamate, at […] was used to define […]. Assay results for each compound were reported as DC50, the concentration giving 50% response, and Dmax, the maximum response observed with the compound.

Sequence of Cyclin E1 (P24864 whole entry): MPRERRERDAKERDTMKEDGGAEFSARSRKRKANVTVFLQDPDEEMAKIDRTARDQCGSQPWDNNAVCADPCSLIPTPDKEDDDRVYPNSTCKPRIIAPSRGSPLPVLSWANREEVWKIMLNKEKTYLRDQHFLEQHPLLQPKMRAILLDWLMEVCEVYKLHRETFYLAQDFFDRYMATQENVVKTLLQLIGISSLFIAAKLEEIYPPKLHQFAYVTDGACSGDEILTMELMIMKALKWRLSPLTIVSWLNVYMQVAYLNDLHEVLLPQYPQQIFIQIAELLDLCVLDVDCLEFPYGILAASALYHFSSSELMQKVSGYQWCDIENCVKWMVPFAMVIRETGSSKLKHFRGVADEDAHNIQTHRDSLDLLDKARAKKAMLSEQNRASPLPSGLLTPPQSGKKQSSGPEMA
Sequence of Cyclin E1 (Q96SW2 whole entry): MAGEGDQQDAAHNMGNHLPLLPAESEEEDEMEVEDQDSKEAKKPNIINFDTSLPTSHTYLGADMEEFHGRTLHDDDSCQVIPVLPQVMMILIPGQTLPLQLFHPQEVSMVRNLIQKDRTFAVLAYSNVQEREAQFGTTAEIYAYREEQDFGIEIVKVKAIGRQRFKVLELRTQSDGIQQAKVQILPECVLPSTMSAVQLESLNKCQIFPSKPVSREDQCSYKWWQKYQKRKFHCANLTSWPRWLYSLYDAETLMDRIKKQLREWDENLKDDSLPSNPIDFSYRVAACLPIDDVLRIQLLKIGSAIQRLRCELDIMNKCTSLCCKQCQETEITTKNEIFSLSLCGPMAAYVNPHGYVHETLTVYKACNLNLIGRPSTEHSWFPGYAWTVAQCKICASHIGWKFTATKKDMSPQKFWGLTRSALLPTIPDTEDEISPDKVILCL
Sequence of Cyclin E1 (Q16531 whole entry partner): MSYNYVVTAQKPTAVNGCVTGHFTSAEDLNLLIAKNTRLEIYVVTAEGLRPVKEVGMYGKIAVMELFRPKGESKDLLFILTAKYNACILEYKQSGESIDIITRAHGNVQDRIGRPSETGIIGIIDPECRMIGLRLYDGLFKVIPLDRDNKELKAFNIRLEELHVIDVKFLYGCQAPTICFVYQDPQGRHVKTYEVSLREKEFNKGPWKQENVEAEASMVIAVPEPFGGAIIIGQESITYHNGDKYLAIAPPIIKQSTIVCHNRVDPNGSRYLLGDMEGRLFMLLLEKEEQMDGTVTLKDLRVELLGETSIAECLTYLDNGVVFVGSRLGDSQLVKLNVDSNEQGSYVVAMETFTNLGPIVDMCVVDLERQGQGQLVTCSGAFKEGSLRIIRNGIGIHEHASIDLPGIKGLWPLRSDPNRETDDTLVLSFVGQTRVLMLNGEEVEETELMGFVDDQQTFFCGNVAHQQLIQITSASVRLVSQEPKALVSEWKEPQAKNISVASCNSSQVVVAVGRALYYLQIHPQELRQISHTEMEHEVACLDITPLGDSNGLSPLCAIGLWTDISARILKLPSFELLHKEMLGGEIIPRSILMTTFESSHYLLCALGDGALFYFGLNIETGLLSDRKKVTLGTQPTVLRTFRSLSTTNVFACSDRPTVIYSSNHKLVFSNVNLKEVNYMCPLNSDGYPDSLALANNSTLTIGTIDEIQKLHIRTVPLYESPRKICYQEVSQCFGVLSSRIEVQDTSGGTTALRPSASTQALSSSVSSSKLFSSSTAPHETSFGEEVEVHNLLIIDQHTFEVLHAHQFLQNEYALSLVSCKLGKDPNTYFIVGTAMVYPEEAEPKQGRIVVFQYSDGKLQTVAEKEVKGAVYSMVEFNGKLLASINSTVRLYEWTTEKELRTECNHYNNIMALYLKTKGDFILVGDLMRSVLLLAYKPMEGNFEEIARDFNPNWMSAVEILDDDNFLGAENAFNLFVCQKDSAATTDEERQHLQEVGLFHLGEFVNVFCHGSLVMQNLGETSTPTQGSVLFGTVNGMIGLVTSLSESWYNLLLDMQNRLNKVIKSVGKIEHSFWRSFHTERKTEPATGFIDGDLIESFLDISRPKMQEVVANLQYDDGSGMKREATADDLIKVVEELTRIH
Sequence of GSPT1 (P15170 whole entry, the tested form may be a part): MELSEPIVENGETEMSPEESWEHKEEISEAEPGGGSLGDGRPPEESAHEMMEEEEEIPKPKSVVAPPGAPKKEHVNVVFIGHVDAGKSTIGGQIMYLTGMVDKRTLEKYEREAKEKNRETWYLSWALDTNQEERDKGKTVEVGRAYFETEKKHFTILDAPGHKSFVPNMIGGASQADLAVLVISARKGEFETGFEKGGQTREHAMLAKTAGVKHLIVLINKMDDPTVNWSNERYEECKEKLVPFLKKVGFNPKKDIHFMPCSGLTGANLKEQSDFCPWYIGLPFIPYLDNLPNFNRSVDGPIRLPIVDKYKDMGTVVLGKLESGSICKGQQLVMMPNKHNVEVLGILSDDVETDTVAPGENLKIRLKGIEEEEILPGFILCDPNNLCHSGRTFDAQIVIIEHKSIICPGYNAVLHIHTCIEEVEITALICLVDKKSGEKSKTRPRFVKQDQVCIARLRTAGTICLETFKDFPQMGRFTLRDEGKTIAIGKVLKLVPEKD
Sequence of GSPT1 (Q96SW2 whole entry, the tested form may be a part): as the sequence (Q96SW2 whole entry) above
Sequence of GSPT1 (Q16531 whole entry partner, the tested form may be a part): as the sequence (Q16531 whole entry partner) above

Structure (SMILES) | DC50 [1] [µM] | Dmax [1] [%] | IC50 [2] [nM] | DC50 [3] [nM] | Dmax [3] [%] | Ratio of GSPT1 DC50/Cyclin E1 DC50 [3] | Emax [2] [%]
COc1c(COC(=O)Nc2ccc(Oc3cc(C)cc(C)c3)cc2)ccc2c1C(=O)N(C1CCC(=O)NC1=O)C2 (stereo not shown) [Example 12, [2-(2,6-dioxopiperidin-3-yl)-4-methoxy-3-oxo-2,3-dihydro-1H-isoindol-5-yl]methyl N-[4-(3,5-dimethylphenoxy)phenyl]carbamate] | > 14 | 11 | 483 | 82 | 100 | >171 | 111
COc1c(COC(=O)Nc2ccc(Cc3ccc(F)c(F)c3)cc2C)ccc2c1C(=O)N(C1CCC(=O)NC1=O)C2 (stereo not shown) [Example 18, [2-(2,6-dioxopiperidin-3-yl)-4-methoxy-3-oxo-2,3-dihydro-1H-isoindol-5-yl]methyl N-{4-[(3,4-difluorophenyl)methyl]-2-methylphenyl}carbamate] | > 14 | 13 | 85 | 89 | 100 | >157 | 110
CC(C)Oc1c(COC(=O)Nc2ccc(Oc3ccc(F)cc3)cc2)ccc2c1C(=O)N(C1CCC(=O)NC1=O)C2 (stereo not shown) [Example 59, [2-(2,6-dioxopiperidin-3-yl)-3-oxo-4-(propan-2-yloxy)-2,3-dihydro-1H-isoindol-5-yl]methyl N-[4-(4-fluorophenoxy)phenyl]carbamate] | > 14 | 48 | 175 | 131 | 104 | >107 | 113
O=C1CCC(N2Cc3ccc(COC(=O)Nc4ccc(Oc5ccc(F)c(F)c5)cc4)c(OC4CCC4)c3C2=O)C(=O)N1 (stereo not shown) [Example 126, [4-cyclobutoxy-2-(2,6-dioxopiperidin-3-yl)-3-oxo-2,3-dihydro-1H-isoindol-5-yl]methyl N-[4-(3,4-difluorophenoxy)phenyl]carbamate] | > 14 | 9 | 117 | 140 | 107 | >100 | 129

The next lines start with results.

DC50 [1] [µM] | Dmax [1] [%] | IC50 [2] [nM] | DC50 [3] [nM] | Dmax [3] [%] | Ratio of GSPT1 DC50/Cyclin E1 DC50 [3] | Structure (SMILES) | Emax [2] [%]
> 14 | 36 | 63 | 274 | 110 | >51 | COc1c(COC(=O)Nc2ccc(Oc3ccc(F)cc3C)cc2F)ccc2c1C(=O)N(C1CCC(=O)NC1=O)C2 (stereo not shown) [Example 95, [2-(2,6-dioxopiperidin-3-yl)-4-methoxy-3-oxo-2,3-dihydro-1H-isoindol-5-yl]methyl N-[2-fluoro-4-(4-fluoro-2-methylphenoxy)phenyl]carbamate] | 125
> 14 | 15 | 163 | 195 | 103 | >72 | CC(C)Oc1c(COC(=O)Nc2ccc(Oc3ccc(F)cc3Cl)cc2)ccc2c1C(=O)N(C1CCC(=O)NC1=O)C2 (stereo not shown) [Example 124, [2-(2,6-dioxopiperidin-3-yl)-3-oxo-4-(propan-2-yloxy)-2,3-dihydro-1H-isoindol-5-yl]methyl N-[4-(2-chloro-4-fluorophenoxy)phenyl]carbamate] | 121
> 14 | 0 | 96 | 182 | 100 | >77 | O=C1CCC(N2Cc3ccc(COC(=O)Nc4ccc(Oc5cc(F)c(F)c(F)c5)cc4F)c(O[C@@H]4CCCOC4)c3C2=O)C(=O)N1 (stereo partly drawn) [Example 150, [2-(2,6-dioxopiperidin-3-yl)-4-[(3R)-oxan-3-yloxy]-3-oxo-2,3-dihydro-1H-isoindol-5-yl]methyl N-[2-fluoro-4-(3,4,5-trifluorophenoxy)phenyl]carbamate] | 137

Reference: US20250084056A1, “SUBSTITUTED OXOISOINDOLINYL PIPERIDINE-2,6-DIONE COMPOUNDS” (BRISTOL-MYERS SQUIBB COMPANY, priority 2023, published 2025)
